Experimental data reported in ChEMBL document CHEMBL1201862, “PubChem BioAssay data set” (2004).
Each block holds one compound with its values, some of them ahead of it. Activity calls are given as the source filed them.

Legend:
[1] = reduced cellular PGC1a acetyl-lysine signal – cell-based, cherry-picked samples, dose response (AID 720514); type: functional;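 also: potency may reflect raised or lowered acetylation signal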
Beta-galactosidase = Beta-galactosidase (Escherichia coli, UniProt Q8VNN2); test: Dose response counterscreen for EBI2 assay utilizing the enzyme, b-galactosidase.; type: functional
Paired box protein Pax-8 = Paired box protein Pax-8 (Homo sapiens, UniProt Q06710); test: PAX8 transcriptional activity inhibition in RMG-I – RMG-I cells, luciferase, cherry-pick, dose response (AID 687027); type: functional, cell-based;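 also: luciferase reporter driven by Pax8 target thyroperoxidase promoter measured by SteadyGlo luminescence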
[2] = inhibitors acting on PAX2 in cells – cell-based, plate reader, dry powder samples, selectivity assay for PAX8 inhibitor project, dose response (AID 743048); type: functional;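 also: HEK293 cells carrying a WT1 promoter luciferase reporter driven by expressed Pax2; potency is for inhibition of Pax2 driven reporter signal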
[3] = OVCAR-3 cell viability loss – plate reader, dry powder samples, PAX8 inhibitor project, dose response (AID 743044); type: functional, cell-based
[4] = PAX5 cellular inhibition readout – cell-based, plate reader, dry powder samples, selectivity assay for PAX8 inhibitor project, dose response (AID 743047); type: functional;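 also: HEK293 cells carrying a Pax5 driven CD19 promoter luciferase reporter; potency of inhibitors that lower reporter luminescence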
[5] = COV434 cell viability loss – plate reader, dry powder, SA7, cytotoxicity control for PAX8 inhibitor project, dose response (AID 743145); type: functional, cell-based
[6] = OV-90 cell viability loss – plate reader, dry powder, SA8, PAX8 inhibitor project, dose response (AID 743149); type: functional, cell-based
[7] = PAX8-dependent cell viability loss – plate reader, dry powder, dose response (AID 743049); type: functional, cell-based
[8] = biological target: T1, Heat shock factor protein 1 (Mus musculus, UniProt P38532); test: decrease of HSF1-responsive luciferase luminescence – cell-based, NIH3T3, dose retest, confirmation (AID 2382); type: functional;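 also: NIH3T3 fibroblasts with HSF1-driven luciferase reporter stressed by proteasome inhibitor MG132; luminescence from HSF1-driven luciferase expression after 8 hours of MG132 stress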
T1 sequence (P38532 whole entry): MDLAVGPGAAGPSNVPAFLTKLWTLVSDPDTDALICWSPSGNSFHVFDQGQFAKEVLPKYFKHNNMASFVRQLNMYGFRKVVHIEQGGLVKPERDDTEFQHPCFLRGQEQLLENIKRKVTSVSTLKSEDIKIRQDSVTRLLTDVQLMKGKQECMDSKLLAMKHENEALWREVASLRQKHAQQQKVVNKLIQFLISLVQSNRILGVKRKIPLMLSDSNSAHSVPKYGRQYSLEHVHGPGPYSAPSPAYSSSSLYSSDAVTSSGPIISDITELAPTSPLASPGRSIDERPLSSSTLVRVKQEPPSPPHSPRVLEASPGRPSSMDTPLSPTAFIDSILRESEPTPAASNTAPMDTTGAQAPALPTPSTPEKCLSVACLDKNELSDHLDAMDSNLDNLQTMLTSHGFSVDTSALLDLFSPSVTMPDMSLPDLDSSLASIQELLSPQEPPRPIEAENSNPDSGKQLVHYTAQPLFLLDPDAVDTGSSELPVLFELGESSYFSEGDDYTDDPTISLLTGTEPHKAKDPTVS

HEK293 = test: EBV LMP1 TES2 canonical NF-kB signalling blockers – cell-based, HEK293, luciferase, cherry-pick, dose response (AID 588343); type: functional, Homo sapiens; settings: Homo sapiens, HEK293
Interleukin-8 [9] = biological target: T2, Interleukin-8 (Homo sapiens, UniProt P10145); test: Dose Response confirmation of uHTS small molecule hits for cystic fibrosis induced NFkb Inhibitors in a TNFa-induced IL8 counterscreen.; type: functional; settings: read-out: IC50_Mean
T2 sequence (P10145 whole entry): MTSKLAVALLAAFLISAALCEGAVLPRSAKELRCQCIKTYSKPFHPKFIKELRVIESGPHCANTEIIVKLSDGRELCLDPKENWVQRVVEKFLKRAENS

Interleukin-8 [10] = biological target: T2, Interleukin-8; test: Dose Response confirmation of uHTS small molecule hits for cystic fibrosis induced NFkb Inhibitors in a PAF-induced IL8 counterscreen.; type: functional; settings: read-out: IC50_Mean
Kallikrein-7 = Kallikrein-7 (Homo sapiens, UniProt P49862); test: Fluorescence Intensity-based biochemical primary high throughput dose response assay to identify activators of kallikrein-7 (K7) zymogen.
[11] = biological target: T3, Probable nicotinate-nucleotide adenylyltransferase (Staphylococcus aureus (strain N315), UniProt P65502); type: functional, Staphylococcus aureus subsp. aureus N315;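 as to IC50 Mean: confirmatory dose-response retesting of NadD inhibitor hits first found in an ultra-high-throughput screen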
[12] = biological target: T3, Probable nicotinate-nucleotide adenylyltransferase; type: functional, Staphylococcus aureus subsp. aureus N315; settings: read-out: IC50_Mean
fMet-Leu-Phe receptor = biological target: T4, fMet-Leu-Phe receptor (Homo sapiens, UniProt P21462); test: formyl peptide receptor binders – dose response (AID 519); type: functional
T4 sequence (P21462 whole entry): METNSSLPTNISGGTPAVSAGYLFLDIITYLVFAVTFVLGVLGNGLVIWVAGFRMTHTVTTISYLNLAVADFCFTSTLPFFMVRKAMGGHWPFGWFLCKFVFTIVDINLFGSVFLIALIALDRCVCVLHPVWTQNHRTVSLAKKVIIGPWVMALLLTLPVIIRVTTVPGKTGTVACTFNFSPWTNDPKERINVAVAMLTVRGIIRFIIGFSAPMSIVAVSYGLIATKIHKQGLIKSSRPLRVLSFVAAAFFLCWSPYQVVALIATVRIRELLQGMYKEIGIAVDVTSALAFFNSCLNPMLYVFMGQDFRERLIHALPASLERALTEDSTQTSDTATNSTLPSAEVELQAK

[13] = biological target: T5, Methionyl-tRNA synthetase, putative (Trypanosoma brucei brucei, UniProt Q38C91); type: functional, Trypanosoma brucei brucei strain 927/4 GUTat10.1
T5 sequence (Q38C91 whole entry): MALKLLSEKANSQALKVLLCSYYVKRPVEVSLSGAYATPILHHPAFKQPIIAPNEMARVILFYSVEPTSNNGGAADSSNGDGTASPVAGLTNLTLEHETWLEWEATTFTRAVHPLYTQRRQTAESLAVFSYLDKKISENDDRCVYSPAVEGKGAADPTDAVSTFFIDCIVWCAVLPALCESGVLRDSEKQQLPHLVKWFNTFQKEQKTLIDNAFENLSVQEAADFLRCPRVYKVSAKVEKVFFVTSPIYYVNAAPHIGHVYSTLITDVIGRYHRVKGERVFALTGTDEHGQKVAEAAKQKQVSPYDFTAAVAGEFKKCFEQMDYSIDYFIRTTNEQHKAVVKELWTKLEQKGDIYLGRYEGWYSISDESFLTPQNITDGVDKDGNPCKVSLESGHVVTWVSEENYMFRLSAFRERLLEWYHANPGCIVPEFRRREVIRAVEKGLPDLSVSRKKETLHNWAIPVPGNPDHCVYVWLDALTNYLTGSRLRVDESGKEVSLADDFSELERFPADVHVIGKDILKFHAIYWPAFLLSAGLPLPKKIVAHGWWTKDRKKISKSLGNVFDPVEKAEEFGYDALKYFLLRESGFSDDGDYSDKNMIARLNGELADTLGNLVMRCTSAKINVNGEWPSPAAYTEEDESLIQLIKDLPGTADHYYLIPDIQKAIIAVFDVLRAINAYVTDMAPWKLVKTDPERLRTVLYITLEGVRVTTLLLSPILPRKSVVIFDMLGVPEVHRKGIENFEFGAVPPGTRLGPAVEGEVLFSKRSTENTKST

[14] = Counterscreen for inhibitors of Trypanosoma brucei methionyl tRNA synthetase (MetRS): Luminescence-based cell-based high throughput dose response assay to identify compounds that are cytotoxic to Jurkat human T lymphocyte cells.; type: functional
[15] = biological target: T5, Methionyl-tRNA synthetase, putative; type: functional, Trypanosoma brucei brucei strain 927/4 GUTat10.1; remark: listed apart in the source

Chain of Beta-galactosidase (Q8VNN2 whole entry): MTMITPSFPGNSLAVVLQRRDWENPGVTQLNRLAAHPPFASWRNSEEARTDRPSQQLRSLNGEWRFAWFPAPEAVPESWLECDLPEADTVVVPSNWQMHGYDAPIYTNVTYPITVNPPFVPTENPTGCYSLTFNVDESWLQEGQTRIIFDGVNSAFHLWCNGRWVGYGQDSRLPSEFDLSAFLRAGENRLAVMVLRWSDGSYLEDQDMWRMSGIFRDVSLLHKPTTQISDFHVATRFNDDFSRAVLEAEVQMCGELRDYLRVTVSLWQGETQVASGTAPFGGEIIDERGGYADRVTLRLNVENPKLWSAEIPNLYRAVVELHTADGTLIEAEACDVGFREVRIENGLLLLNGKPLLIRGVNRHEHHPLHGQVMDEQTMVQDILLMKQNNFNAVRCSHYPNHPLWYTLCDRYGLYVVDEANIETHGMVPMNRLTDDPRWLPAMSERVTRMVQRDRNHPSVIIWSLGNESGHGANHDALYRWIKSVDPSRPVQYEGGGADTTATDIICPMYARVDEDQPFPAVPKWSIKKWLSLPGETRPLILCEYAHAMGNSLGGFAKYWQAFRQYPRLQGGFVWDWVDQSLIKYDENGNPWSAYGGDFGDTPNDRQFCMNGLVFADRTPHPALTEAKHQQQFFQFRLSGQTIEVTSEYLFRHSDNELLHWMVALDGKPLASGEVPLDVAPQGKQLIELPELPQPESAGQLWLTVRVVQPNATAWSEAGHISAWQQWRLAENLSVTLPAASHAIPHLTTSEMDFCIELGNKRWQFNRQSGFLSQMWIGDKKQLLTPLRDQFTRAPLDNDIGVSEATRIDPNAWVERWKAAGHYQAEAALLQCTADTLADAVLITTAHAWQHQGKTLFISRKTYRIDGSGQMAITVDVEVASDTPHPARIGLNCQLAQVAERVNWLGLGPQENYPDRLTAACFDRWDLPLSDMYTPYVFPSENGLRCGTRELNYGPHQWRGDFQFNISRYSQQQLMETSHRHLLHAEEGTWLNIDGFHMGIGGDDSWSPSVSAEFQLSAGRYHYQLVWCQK
Chain of Kallikrein-7 (P49862 whole entry): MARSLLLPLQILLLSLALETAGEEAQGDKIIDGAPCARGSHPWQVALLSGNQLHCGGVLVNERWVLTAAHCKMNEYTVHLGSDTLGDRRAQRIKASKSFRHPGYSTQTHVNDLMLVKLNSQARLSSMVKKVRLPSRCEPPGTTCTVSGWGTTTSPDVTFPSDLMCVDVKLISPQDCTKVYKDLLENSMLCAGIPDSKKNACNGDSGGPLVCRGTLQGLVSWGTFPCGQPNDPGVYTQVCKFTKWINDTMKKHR
Chain of Paired box protein Pax-8 (Q06710 whole entry): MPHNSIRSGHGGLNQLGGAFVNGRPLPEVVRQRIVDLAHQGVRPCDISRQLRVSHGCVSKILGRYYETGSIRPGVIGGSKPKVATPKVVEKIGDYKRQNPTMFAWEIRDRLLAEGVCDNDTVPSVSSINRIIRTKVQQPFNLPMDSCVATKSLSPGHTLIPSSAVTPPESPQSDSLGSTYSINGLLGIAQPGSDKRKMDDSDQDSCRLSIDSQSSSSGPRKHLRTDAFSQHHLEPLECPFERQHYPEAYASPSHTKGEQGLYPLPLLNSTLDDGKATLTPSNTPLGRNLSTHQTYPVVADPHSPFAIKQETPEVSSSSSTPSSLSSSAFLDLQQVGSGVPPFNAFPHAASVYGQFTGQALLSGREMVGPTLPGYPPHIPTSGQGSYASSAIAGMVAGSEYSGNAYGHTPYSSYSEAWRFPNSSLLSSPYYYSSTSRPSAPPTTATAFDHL

Compound: CC(C)CC#Cc1ccc([C@H]2[C@H](CO)N3C(=O)CN(C(=O)Nc4cc(F)ccc4F)C[C@@H]23)cc1
AC50 [1]: 27.6 µM (active)

Compound: Cc1ccc(S(=O)(=O)Nc2ccc3c(c2)nc(CCN2CCCC2)n3C)cc1
AC50 (Paired box protein Pax-8): 5.89 µM (active) | AC50 [2]: > 100 µM (inactive) | AC50 [3]: 34.1 µM (active) | AC50 [4]: > 100 µM (inactive) | AC50 [5]: 26.4 µM (active) | AC50 [6]: 45.2 µM (active) | AC50 [7]: 50.6 µM (active)

Compound: CCCCN(c1ccccc1)c1ncnc(N)c1[N+](=O)[O-]
EC50 [8]: 8.33 µM (active) | AC50 (HEK293): 14.3 µM (active) | IC50 (Interleukin-8 [9]): 39.7 µM (inactive) | IC50 (Interleukin-8 [10]): > 79 µM (inactive)

Compound: O=C(/C=C/c1cccs1)N1CCC2(CC1)Oc1ccc(Cl)cc1C(=O)C21CC(c2ccccc2)=NO1 (stereo unspecified)
IC50 (Beta-galactosidase): > 80 µM (inactive)

Compound: CC(=O)NS(=O)(=O)c1ccc(NC(=O)/C=C/c2cn(-c3ccccc3)nc2-c2ccccc2)cc1
IC50 [13]: 49.8 µM (inactive) | IC50 [14]: 83.3 µM (inactive) | IC50 [15]: 12 µM (inactive)

The next lines start with the values.

IC50 (Beta-galactosidase): > 80 µM (inactive)
Compound: CN=C(S)N1N=C(c2ccc(C)cc2)CC1c1ccc(Cl)cc1 (stereo unspecified)

EC50 (Kallikrein-7): > 69.5 µM (inactive)
Compound: CCOC(=O)c1cnc2c(C(=O)OC)cccc2c1NCc1ccco1

IC50 [11]: 8.29 µM (active) | IC50 [12]: 17.8 µM (active) | Ki (fMet-Leu-Phe receptor): 22.9 µM (inactive)
Compound: Cc1cccc(-n2nc3c(c2NC(=O)c2ccco2)CSC3)c1C
